# According to patent publication US20210228500A1, “CELLULAR RETINOID BINDING PROTEIN ANTAGONISTS AND USES THEREOF” (CASE WESTERN RESRVE UNIVERSITY, priority 2018, published 2021):
# Key:
# CRBP3 = target: T1, CRBP3 (Homo sapiens, UniProt P82980); assay: Crystal structure of CRBP3 in complex with abn-CBD; assay type: binding; settings: crystal structure PDB No. 6E5W
# T1 construct: thrombin cut site (residual residues after digestion) (C); 6x histidine tag (C, cleaved yes); made in house; host or cells: E. coli BL21 (DE3) (as for CRBP2)
# T1 sequence (P82980 1-135): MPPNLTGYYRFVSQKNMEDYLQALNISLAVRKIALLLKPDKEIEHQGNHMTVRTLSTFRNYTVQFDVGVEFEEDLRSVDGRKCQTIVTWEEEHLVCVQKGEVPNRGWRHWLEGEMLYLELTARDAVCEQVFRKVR
# Procedure: The cDNA of human CRBP3 was purchased from Origene Technologies. To introduce a thrombin cut site at the C-terminus of the protein, the cDNA was amplified by PCR and subcloned into pET30b vector. The next steps of the expression and purification of CRBP3 were identical to the procedure described above for CRBP2.
# Crystals of CRBP1 in complex abn-CBD and its derivatives (abn-CBDO or CBDO) were grown essentially as described by Silvaroli et al (ACS Chem Biol. 2019, 15; 14(3)). The apo protein at 3 mg mL-1 was preincubated with 300 μM of a ligand in 10 mM Tris-HCl buffer, pH 8.0, 150 mM NaCl for 15 min on ice. This sample (1 μL) was mixed in 1:1 ratio with a crystallization solution composed of 0.1 M BisTris, pH 5.5, and 25% poly(ethylene glycol) (PEG) 3350 (w/v). Crystals of CRBP3 with abn-CBD were obtained by preincubating apoprotein at 8 mg mL-1 with 300 μM of the ligand for 15 min and setting up crystallization drops by mixing 1 μL of the protein sample with 1 μL of 0.2 M sodium malonate, pH 5.0 and 20% PEG 3350 (w/v) solution. For CRBP4, the crystallization conditions included 0.2 M NaCl, 0.1 M BisTris, pH 6.5, and 25% PEG 3350 (w/v). Similar to the other CRBPs, CRBP4 (6 mg mL^−1) was preincubated with abn-CBD prior to the crystallization. All of the protein crystals were obtained by the sitting drop vapor diffusion method at RT. […]
# CRBP4 = target: T2, CRBP4 (Homo sapiens, UniProt Q96R05); assay: Crystal structure of CRBP4 in complex with abn-CBD; assay type: binding; settings: crystal structure PDB No. 6E6K
# T2 construct: thrombin cut site (residual residues after digestion) (C); 6x histidine tag (C, cleaved yes); made in house; host or cells: E. coli BL21 (DE3) (as for CRBP2)
# T2 sequence (Q96R05 1-134): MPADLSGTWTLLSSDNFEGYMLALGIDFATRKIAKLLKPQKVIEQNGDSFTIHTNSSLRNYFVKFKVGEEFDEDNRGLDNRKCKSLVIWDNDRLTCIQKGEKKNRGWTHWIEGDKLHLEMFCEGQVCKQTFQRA
# Description: The cDNA of human CRBP4 was purchased from Origene Technologies. The introduction of a thrombin cut site at the C-terminus was achieved by PCR amplification of the cDNA. The PCR product was subcloned into pET30b vector. For the most part, CRBP4 was expressed and purified as described for CRBP2. However, after digestion with thrombin and reloading onto HisTrap column, the unbound fraction of the protein was further purified on a HiTrap SP HP ion exchanger column (GE Healthcare). CRBP4 was loaded in 10 mM Tris/HCl buffer, pH 8.0 buffer, and subsequently eluted with a gradient of NaCl (0-0.5 M) over 30 min at a flow rate 1.0 mL min^−1. Purified CRBP4 was concentrated to 6 mg mL^−1 and liquated at −80° C.
# Crystals of CRBP1 in complex abn-CBD and its derivatives (abn-CBDO or CBDO) were grown essentially as described by Silvaroli et al (ACS Chem Biol. 2019, 15; 14(3)). The apo protein at 3 mg mL-1 was preincubated with 300 μM of a ligand in 10 mM Tris-HCl buffer, pH 8.0, 150 mM NaCl for 15 min on ice. This sample (1 μL) was mixed in 1:1 ratio with a crystallization solution composed of 0.1 M BisTris, pH 5.5, and 25% poly(ethylene glycol) (PEG) 3350 (w/v). […]
# RPE65 = target: T3, RPE65 (Bos taurus, UniProt Q28175); assay: RPE65 isomerization activity assay; assay type: biochemical; settings: bovine RPE microsomes preincubated with 10-50 μM
# T3 construct: from tissue; host or cells: bovine RPE microsomes
# T3 sequence (Q28175 whole entry): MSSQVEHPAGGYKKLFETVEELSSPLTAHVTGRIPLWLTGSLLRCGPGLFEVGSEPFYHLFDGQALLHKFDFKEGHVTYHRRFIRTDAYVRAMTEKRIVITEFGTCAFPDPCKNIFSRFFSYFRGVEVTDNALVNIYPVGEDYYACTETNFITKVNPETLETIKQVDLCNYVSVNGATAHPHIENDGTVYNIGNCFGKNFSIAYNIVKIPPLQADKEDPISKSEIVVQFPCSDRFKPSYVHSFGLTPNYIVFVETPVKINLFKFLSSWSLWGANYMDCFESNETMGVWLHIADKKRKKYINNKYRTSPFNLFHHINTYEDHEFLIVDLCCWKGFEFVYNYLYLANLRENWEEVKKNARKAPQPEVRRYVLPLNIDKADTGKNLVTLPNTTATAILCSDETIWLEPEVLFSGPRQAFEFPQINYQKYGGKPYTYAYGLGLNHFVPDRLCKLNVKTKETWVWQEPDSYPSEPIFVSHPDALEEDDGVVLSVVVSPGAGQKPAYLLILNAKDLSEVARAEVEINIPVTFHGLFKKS
# Procedure: For the retinoid isomerization assay, UV-bleached RPE microsomes isolated from bovine eyes served as a source of robust RPE65 enzymatic activity. The isomerization reaction was performed in the presence of cellular retinaldehyde-binding protein (CRALBP) according to an established methodology published previously. The enzymatic reaction was initiated by addition of atROL the final concentration of 10 μM. After incubation at 30° C. for 30 min, the reaction products were extracted with hexane and analyzed by HPLC as described above.
# Thus, to further probe the biological effect of this compound, we tested its effect on the key enzymes of the visual cycle. For this purpose, microsomes isolated from bovine RPE cells were preincubated with 10-50 μM of abn-CBD (1:1 to 1:5 molar excess of cannabinoid) prior to the initiation of the esterification, isomerization, or oxidation reactions by addition of an adequate retinoid substrate.
# cannabinoid receptor 1 = cannabinoid receptor 1 (Homo sapiens, UniProt P21554); settings: cited from earlier work
# Chain of cannabinoid receptor 1 (P21554 whole entry, species assumed): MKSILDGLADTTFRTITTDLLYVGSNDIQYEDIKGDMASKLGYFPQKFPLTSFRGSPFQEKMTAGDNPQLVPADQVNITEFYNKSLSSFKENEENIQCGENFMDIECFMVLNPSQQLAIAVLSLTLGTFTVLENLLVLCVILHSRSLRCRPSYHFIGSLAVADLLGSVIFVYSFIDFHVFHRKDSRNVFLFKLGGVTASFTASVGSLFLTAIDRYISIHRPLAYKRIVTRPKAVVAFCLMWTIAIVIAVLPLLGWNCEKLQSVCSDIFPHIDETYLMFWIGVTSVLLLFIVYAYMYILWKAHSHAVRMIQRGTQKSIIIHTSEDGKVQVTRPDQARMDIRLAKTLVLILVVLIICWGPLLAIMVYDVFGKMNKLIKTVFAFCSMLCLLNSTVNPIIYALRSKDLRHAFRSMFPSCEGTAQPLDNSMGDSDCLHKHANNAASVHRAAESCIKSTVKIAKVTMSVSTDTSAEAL
smiles,measurement,setting,value
"C=C(C)[C@@H]1CCC(C)=C[C@H]1c1c(O)cc(O)cc1CCCCC [abn-CBD, 4-[(1R,6R)-3-Methyl-6-prop-1-en-2-ylcyclohex-2-en-1-yl]-5-pentylbenzene-1,3-diol]",binding to CRBP3,CRBP3,bind abn-CBD similarly to CRBP1
same,binding to CRBP4,CRBP4,bind abn-CBD similarly to CRBP1
same,effect on enzymatic activity of RPE65,RPE65,did not cause a measurable decline
same,interaction with cannabinoid receptor 1,cannabinoid receptor 1,does not interact
